In the NIST ThermoML archive (doi:10.1016/j.jct.2018.07.013):

Key:
[1] = xn = mol fraction of the nth substance listed; details: 298.15 K, 100 kPa, Liquid; for speed of sound: Frequency=3 MHz, Single path-length method; for mass density: Vibrating tube method
[2] = excess molar enthalpy (molar enthalpy of mixing); xn = mol fraction of the nth substance listed; details: 298.15 K, 100 kPa, Liquid, Power-compensation calorimetry
[3] = 298.15 K, 100 kPa, Liquid

COC(=O)C(C)O (configuration not stated) [methyl 2-hydroxypropanoate] + CCO
Details | excess molar enthalpy, [2] [kcal/mol] | mass density, [1] [kg/m3] | speed of sound, [1] [m/s]
x1 = 0.0492 | – | 809.35 | 1158
x1 = 0.056 | 0.0277 | – | –
x1 = 0.0968 | – | 831.45 | 1172.3
x1 = 0.104 | 0.0497 | – | –
x1 = 0.185 | 0.0801 | – | –
x1 = 0.2099 | – | 879.28 | 1203.7
x1 = 0.225 | 0.0932 | – | –
x1 = 0.281 | 0.105 | – | –
x1 = 0.3161 | – | 918.72 | 1229.4
x1 = 0.3921 | – | 944.17 | 1245.2
x1 = 0.464 | 0.11 | – | –
x1 = 0.4987 | – | 976.29 | 1266.1
x1 = 0.543 | 0.102 | – | –
x1 = 0.5872 | – | 1000.2 | 1283.3
x1 = 0.666 | 0.0825 | – | –
x1 = 0.6963 | – | 1026.72 | 1300.8
x1 = 0.794 | 0.0569 | – | –
x1 = 0.8007 | – | 1049.53 | 1316.4
x1 = 0.8814 | – | 1065.65 | 1326.5
x1 = 0.903 | 0.0282 | – | –
x1 = 0.952 | 0.0151 | – | –
x1 = 0.9535 | – | 1079.11 | 1334.4
x1 = 1 | – | 1087.35 | 1339.3

COC(=O)C(C)O (configuration not stated) [methyl 2-hydroxypropanoate] + CO
Details | excess molar enthalpy, [2] [kcal/mol] | mass density, [1] [kg/m3] | speed of sound, [1] [m/s]
x1 = 0.0565 | – | 826.67 | 1134.5
x1 = 0.0945 | – | 850.35 | 1152.9
x1 = 0.104 | 0.0038 | – | –
x1 = 0.151 | 0.00392 | – | –
x1 = 0.1933 | – | 902.12 | 1196.4
x1 = 0.262 | 0.00117 | – | –
x1 = 0.287 | 0.000215 | – | –
x1 = 0.3029 | – | 947.03 | 1234.1
x1 = 0.316 | -0.000956 | – | –
x1 = 0.3844 | – | 974.04 | 1254.7
x1 = 0.399 | -0.00413 | – | –
x1 = 0.482 | -0.00719 | – | –
x1 = 0.5099 | – | 1008.1 | 1282.4
x1 = 0.595 | -0.00903 | – | –
x1 = 0.6105 | – | 1029.88 | 1301.4
x1 = 0.687 | -0.00937 | – | –
x1 = 0.7215 | – | 1049.84 | 1318.2
x1 = 0.798 | -0.00686 | – | –
x1 = 0.8206 | – | 1064.82 | 1329.8
x1 = 0.879 | -0.0044 | – | –
x1 = 0.9225 | – | 1078.13 | 1337.1
x1 = 0.945 | -0.00194 | – | –
x1 = 0.9601 | – | 1082.7 | 1338.8
x1 = 1 | – | 1087.35 | 1339.3

CCCO [propan-1-ol]
Details | speed of sound [m/s]
[3], Frequency=3 MHz, Single path-length method | 1206

Details | mass density [kg/m3]
[3], Vibrating tube method | 799.66

CCCO [propan-1-ol] + CCOC(=O)C(C)O
[1], x2 = 0
Details | mass density [kg/m3] | speed of sound [m/s]
– | 799.66 | 1206

CCCO [propan-1-ol] + COC(=O)C(C)O
[1], x2 = 0
Details | mass density [kg/m3] | speed of sound [m/s]
– | 799.66 | 1206
